Results from US6423694B1, “Method of treating otitis media with uridine triphosphates and related compounds” (Inspire Pharmaceuticals, Inc., priority 1996, dated 2002).

How the values were obtained:
otitis media = assay: Treatment of otitis media in children (Example 1); assay type: in vivo, human; settings: children with otitis media; nasal drops or nasal spray twice daily, 10^-7 to 10^-2 moles/liter, with antibiotic therapy
Experimental: Uridine 5′-triphosphate (UTP) is administered to children diagnosed with otitis media (OM). UTP is administered via nasal drops or nasal spray, twice daily, for a total of 5-10 days. The concentration of UTP is in the range of 10^−7 to 10^−2 moles/liter. Treatment with UTP begins as soon as OM is diagnosed and antibiotic therapy is initiated. The length of treatment for each patient is up to one month (28 days); the preferable length of treatment is one week (7 days). Effectiveness of UTP in eliminating middle ear fluid is assessed by several methods including: pneumatic otoscopy (to diagnose fluid in the middle ear and to evaluate the status of eardrum); tympanometry (to evaluate compliance of tympanic membrane/eardrum and to estimate middle ear pressure); acoustic reflectometry (to diagnose presence of air or fluid in the middle ear); and hearing evaluation tests.

[1] = tested on: lung epithelial cells of cystic fibrosis patients; settings: U.S. Pat. No. 5,292,498; cited from earlier work
lung epithelial cells = settings: Boucher et al. 1995, Gheber et al. 1995; cited from earlier work

| SMILES | number of days that middle ear fluid is present (otitis media) | number of days that symptoms such as pain or hearing impairment are experienced (otitis media) | chloride and water secretion [1] | ciliary beat frequency (lung epithelial cells) |
| --- | --- | --- | --- | --- |
| O=c1ccn([C@@H]2O[C@H](COP(=O)(O)OP(=O)(O)OP(=O)(O)O)[C@@H](O)[C@H]2O)c(=O)[nH]1 [UTP, uridine 5′-triphosphate] | decrease in the number of days that middle ear fluid is present | decrease in the number of days that symptoms such as pain or hearing impairment are experienced | induce chloride and water secretion | stimulate the ciliary beat frequency |
| Nc1ncnc2c1ncn2[C@@H]1O[C@H](COP(=O)(O)OP(=O)(O)OP(=O)(O)O)[C@@H](O)[C@H]1O [ATP, adenosine 5′-triphosphate] |  |  | induce chloride and water secretion | stimulate the ciliary beat frequency |
